Assays:
T. congolense IL3000 [1] = test: In vitro trypanocidal activity (CellTiter-Glo, 3 days); assay type: cell-based; details: Trypanosoma congolense, 72 h, bloodstream forms, 33 °C, mean ± SD of triplicate, read-out: Trypanocidal Activity IC50 ± SD, Tc IL3000
Method: (§1) The bloodstream forms of T. b. brucei GUTat3.1, T. b. rhodesiense IL1501, T. b. rhodesiense Chirundu, T. b. gambiense IL1922, and T. evansi Tansui strains were propagated in culture at 37 °C, whereas the T. congolense IL3000 strain was propagated at 33 °C in Hirumi’s modified Iscove’s medium-9, supplemented with 20% heat-inactivated fetal bovine serum. The bloodstream form cultures were maintained by replacing the entire culture supernatant with fresh medium, every other day.
(§2) The trypanocidal activity and cytotoxicity of nitrofurantoin analogs were evaluated according to previous reports, with some modifications. In brief, bloodstream forms adjusted at 2.5 × 10^3 cells/mL (T. b. brucei GUTat3.1, T. b. gambiense IL1922, and T. b. rhodesiense IL1501), 1 × 10^4 cells/mL (T. evansi Tansui and T. b. rhodesiense Chirundu), and 1 × 10^5 cells/mL (T. congolense IL3000), were cultivated in Nunc® MicroWell 96-well optical bottom plates (Thermo Fisher Scientific, Waltham, MA, USA) and exposed to various analogs at seven different concentrations for 3 days, in an incubator at 37 °C (33 °C for T. congolense IL3000). […] Twenty-five microliters of the Cell-TiterGlo® (Promega, Madison, WI, USA) reagent was added into each well, and bioluminescence was measured using a GloMax®-Multi+Detection System plate reader (Promega).
(§3) The half maximum inhibitory concentration (IC50) of each analog in trypanosomes and the Madin–Darby bovine kidney cells was calculated using the GraphPad Prism version 8 software (GraphPad, Inc., San Diego, CA, USA).

T. b. gambiense IL1922 = test: as above; assay type: cell-based; details: Trypanosoma brucei, 72 h, bloodstream forms, 37 °C, mean ± SD of triplicate, read-out: Trypanocidal Activity IC50 ± SD, Tbg IL1922
Method: as §1, §2, §3

T. b. brucei GUTat3.1 = test: as above; assay type: cell-based; details: Trypanosoma brucei, 72 h, bloodstream forms, 37 °C, mean ± SD of triplicate, read-out: Trypanocidal Activity IC50 ± SD, Tbb GUTat3.1
Method: as §1, §2, §3

[2] = test system: T. b. rhodesiense Chirundu; test: as above; assay type: cell-based; details: Trypanosoma brucei, 72 h, bloodstream forms, 37 °C, mean ± SD of triplicate, read-out: Trypanocidal Activity IC50 ± SD, Tbr Chirundu
Method: as §1, §2, §3

T. b. rhodesiense IL1501 = test: as above; assay type: cell-based; details: Trypanosoma brucei, 72 h, bloodstream forms, 37 °C, mean ± SD of triplicate, read-out: Trypanocidal Activity IC50 ± SD, Tbr IL1501
Method: as §1, §2, §3

T. evansi Tansui = test: as above; assay type: cell-based; details: 72 h, bloodstream forms, 37 °C, mean ± SD of triplicate, read-out: Trypanocidal Activity IC50 ± SD, Tev Tansui
Method: as §1, §2, §3

T. congolense IL3000 [3] = test: In vivo treatment efficacy in mice infected with T. congolense; set-up: species or system BALB/c mice; details: for time by which all mice died because of high parasitemia: intraperitoneal injection at 0.1 mg/kg; for time by which all mice died because of high parasitemia / time by which all mice succumbed to high parasite levels: 7 consecutive days from 2 dpi
Method: Healthy female 8-week-old BALB/c mice (CLEA Japan, Inc., Tokyo, Japan) were used in this study. All animals had ad libitum access to normal chow and water.
The virulent T. congolense IL3000 strain was propagated in a mouse and used for infection. The parasites were passaged once in a mouse before the experiment. The experimental mice were intraperitoneally infected with 100 μL of T. congolense in phosphate-buffered saline, containing 10% glucose at 1 × 10^3 cells/mouse. First, the mice were randomly divided into six groups of three mice, each as follows. Group I (no treatment), mice were not infected and were only treated with solvent (10% dimethyl sulfoxide–phosphate–buffered saline). Group II received 3.5 mg/kg of diminazene aceturate treatment. Groups III (9), IV (11), V (12), and VI were treated with nitrofurantoin and the mice were infected and intraperitoneally treated with 0.1 mg/kg of the compound.
In the second experiment, the mice were randomly divided into six groups of three mice, each as follows—group I received no treatment; group II received 3.5 mg/kg of diminazene aceturate treatment; and groups III (9), IV (11), V (12), and VI received nitrofurantoin—the mice were infected and orally treated with 10 mg/kg of the compound.
Treatment was initiated at 2 days post-infection (dpi) and continued for seven consecutive days. The treatments were freshly prepared each day. Parasitemia was observed using a cell counting chamber until 14 dpi.

[4] = Cytotoxicity (Cell Counting Kit-8, 3 days); assay type: cell-based, bovine; details: bovine, Madin–Darby bovine kidney (MDBK) cells, 37 °C, mean ± SD of triplicate
Method: (§4) Additionally, Madin–Darby bovine kidney cells were cultivated (density, 1 × 10^4 cells/mL) in a 96-well cell culture plate (Thermo Fisher Scientific) with the analogs, at seven different concentrations for 3 days at 37 °C. Next, 10 µl of the Cell Counting Kit-8 solution (Dojindo, Kumamoto, Japan) was added into each well […] 4 h of incubation. Absorbance was measured at 450 nm using a GloMax®-Multi+Detection System plate reader.
as §3

[5] = test system: six species/strains of animal and human trypanosomes; test: In vitro trypanocidal activity, summary over all strains; assay type: cell-based; details: over the six trypanosome species/strains
Method: as §1
The trypanocidal activity and cytotoxicity of nitrofurantoin analogs were evaluated according to previous reports, with some modifications. […] Twenty-five microliters of the Cell-TiterGlo® (Promega, Madison, WI, USA) reagent was added into each well, and bioluminescence was measured using a GloMax®-Multi+Detection System plate reader (Promega).
as §3

mycobacterial = test system: mycobacterial; set-up: method as in PMID 32044516; details: more potent than nitrofurantoin; cited from earlier work
[6] = test system: Madin–Darby bovine kidney cells; test: Cytotoxicity (Cell Counting Kit-8, 3 days); assay type: cell-based; details: MDBK cells, 37 °C, mean ± SD of triplicate
Method: as §4, §3

[7] = after both oral (10 mg/kg) and intraperitoneal (0.1 mg/kg) administration
[8] = oral, 10 mg/kg, T. congolense-infected mice

Row | SMILES | IC50 (T. congolense IL3000 [1]) [nM] | IC50 (T. b. gambiense IL1922) [nM] | IC50 (T. b. brucei GUTat3.1) [nM] | IC50 [2] [nM] | IC50 (T. b. rhodesiense IL1501) [nM] | IC50 (T. evansi Tansui) [nM] | treatment efficacy against T. congolense infection in vivo (T. congolense IL3000 [3]; [7]) | time by which all mice died because of high parasitemia (T. congolense IL3000 [3]; T. congolense-infected mice) [dpi] | time by which all mice succumbed to high parasite levels (T. congolense IL3000 [3]; [8]) [dpi] | IC50 at 3 days [4] [nM] | IC50 [5] [nM] | treatment efficacy against T. congolense infection in vivo (T. congolense IL3000 [3]; oral treatment, 10 mg/kg) | mice surviving until end of the experiment period (T. congolense IL3000 [3]; oral, 10 mg/kg, three mice per group, observed until 14 dpi) | anti-mycobacterial potency relative to nitrofurantoin (mycobacterial) [fold] | parasitemia (T. congolense IL3000 [3]; group II, 3.5 mg/kg, T. congolense-infected mice) | IC50 [6] [nM]
1 | CCCCCCCCCCCCN1C(=O)CN(/N=C/c2ccc([N+](=O)[O-])o2)C1=O [Analog 12, (E)-3-Dodecyl-1-([(5-nitrofuran-2-yl)methylene]amino)imidazolidine-2,4-dione] | 12 ± 4.5 | 230 ± 130 | 340 ± 120 | 31 ± 11 | 260 ± 110 | 200 ± 17 | no treatment efficacy | ≤ 9 | ≤ 9 | > 246000 | < 340 |  |  |  |  | 
2 | O=C1CN(/N=C/c2ccc([N+](=O)[O-])o2)C(=O)N1 [Nitrofurantoin] | 360 ± 43 | 1620 ± 280 | 1420 ± 150 |  | 1420 ± 250 | 1960 ± 500 |  | ≤ 9 |  |  |  | partial efficacy | two of three |  |  | 
3 | CCCCCCCCN1C(=O)CN(/N=C/c2ccc([N+](=O)[O-])o2)C1=O [Analog 8, (E)-1-([(5-Nitrofuran-2-yl)methylene]amino)-3-octylimidazolidine-2,4-dione] | 30 ± 5 | 1400 ± 730 | 1890 ± 690 | 39 ± 8.4 | 1380 ± 820 | 810 ± 82 |  |  |  | 84700 ± 8990 |  |  |  | 30 |  | 
4 | CCCCCCCCCN1C(=O)CN(/N=C/c2ccc([N+](=O)[O-])o2)C1=O [Analog 9, (E)-1-([(5-Nitrofuran-2-yl)methylene]amino)-3-nonylimidazolidine-2,4-dione] | 10 ± 3.5 | 440 ± 170 | 570 ± 220 | 17 ± 6.7 | 600 ± 540 | 270 ± 25 | no treatment efficacy | ≤ 9 | ≤ 9 | 251000 ± 58300 |  |  |  |  |  | 
5 | CC(=O)NCC(=O)O.CC(=O)NCC(=O)O.N=C(N)c1ccc(N=NNc2ccc(C(=N)N)cc2)cc1 [diminazene aceturate, reference compound] |  |  |  |  |  |  |  |  |  |  |  |  |  |  | not observed | 
6 | CCCCCCCCCCCN1C(=O)CN(/N=C/c2ccc([N+](=O)[O-])o2)C1=O [Analog 11, (E)-1-([(5-Nitrofuran-2-yl)methylene]amino)-3-undecylimidazolidine-2,4-dione] | 11 ± 3.5 | 330 ± 120 | 330 ± 120 | 21 ± 9.4 | 240 ± 130 | 160 ± 14 | no treatment efficacy | ≤ 9 | ≤ 9 | > 246000 | < 340 |  |  |  |  | > 255000
